Patent US11958821B2, “Phenethylamine compounds salts, polymorphic forms and methods of use thereof” (Terran Biosciences Inc., priority 2021, dated 2024)
Where two headings read alike, the source gives them in different places.

Key:
[1] = Hygroscopicity of MDMA salts at 75% RH, visual assessment after 24 hours; type: physicochemical; conditions: visual assessment after exposure to 75% RH (room temp) for 24 hours
Procedure: A small amount of each salt was placed in a glass vial and exposed to 75% relative humidity for 24 hours. […] That is, the solids remained free flowing.
All materials having a unique X-ray powder diffraction (XRPD) pattern were characterized by differential scanning calorimetry (DSC), thermogravimetric analysis (TG), and ^1H nuclear magnetic resonance (NMR) spectroscopy. The hygroscopicity of each salt at 75% RH was also evaluated. The water solubility of each salt was estimated by adding water in aliquots to weighed portions of solid at room temperature while sonicating. Whether dissolution had occurred was judged by visual inspection after addition of each solvent aliquot. Solubility numbers were calculated by dividing the weight of the sample by the total amount of solvent used to dissolve the sample. The actual solubilities may be greater than the numbers calculated because of the use of solvent aliquots that were too large or because of slow dissolution rates.

[2] = Estimated solubility of MDMA salts (solvent added in aliquots, visual inspection); type: physicochemical
[3] = Dynamic vapor sorption (DVS) analysis with post-DVS XRPD; type: physicochemical; conditions: for Hygroscopicity by DVS: 25° C., 5 to 95% RH
Procedure: DVS analysis was carried out using a TA Instruments Q5000 Dynamic Vapor Sorption analyzer. The instrument was calibrated with standard weights and a sodium bromide standard for humidity. Approximately 5-25 mg of sample was loaded into a metal-coated quartz pan for analysis. The sample was analyzed at 25° C. with a maximum equilibration time of one hour in 10% relative humidity (RH) steps from 5 to 95% RH (adsorption cycle) and from 95 to 5% RH (desorption cycle). The movement from one step to the next occurred either after satisfying the equilibrium criterion of 0.01% weight change or, if the equilibrium criterion was not met, after one hour. The percent weight change values were calculated using Microsoft Excel®.

[4] = cited from earlier work
[5] = cited from earlier work; remark: listed apart in the source
Male Sprague-Dawley rats = assay: Rat elevated zero-maze study with MDAI and chlordiazepoxide; type: in vivo
Procedure: Three rats from the vehicle group, 3 rats from the 2.5 mg/kg MDAI group, and 3 rats from the CDP group were tested on a separate day from the other rats.

[6] = test system: participants diagnosed with at least moderate post-traumatic stress disorder (PTSD); assay: Double-blind, randomized, placebo-controlled clinical trial of MDAI-assisted psychotherapy in PTSD; type: in vivo, human
Procedure: A multicenter, randomized, double-blind, placebo-controlled trial is conducted to assess the efficacy and safety of MDAI-assisted psychotherapy versus psychotherapy with placebo control in participants diagnosed with at least moderate post-traumatic stress disorder (PTSD).
This multicenter, randomized, double-blind, placebo-controlled trial is conducted at various sites in the United States with IRB approval from each study site. A flexible dose of MDAI hydrochloride salt or placebo, followed by a supplemental half-dose unless contraindicated by patient's previous response or medical history, is also administered during the Treatment Period with psychotherapy in at least 3 blinded monthly Experimental Sessions. The Supplemental Dose extends the duration of drug effects on the participants during an Experimental Session. An optional Risk Evaluation and Mitigation Strategy (REMS) Protocol may be implemented for MDAI and placebo-groups. The Treatment Period lasts for approximately 12 weeks. During the Treatment Period, each Experimental Session is followed by three Intervening Sessions of non-drug psychotherapy. Each Experimental Session involves an overnight stay. The Primary Outcome measure, the change in Clinician Administered PTSD Scale for DSM-5 (CAPS-5), is determined by a blinded Independent Rater (IR) pool multiple times throughout the study. The study consists of separate periods for each participant. Initially, prospective participants undergo a Screening Period involving an initial eligibility assessment, a medical history intake, informed consent, and enrollment of eligible participants. Next, a Preparation Period is undertaken for enrolled participants involving medication tapering and clinical baseline assessments to confirm each participant meets enrollment criteria. As part of the Preparation Period, a detailed assessment of co-morbidities to PTSD is recorded. Participants may remain on prescribed courses of selective serotonin reuptake inhibitor (SSRI) or serotonin and norepinephrine reuptake inhibitor (SNRI) treatment. Dosages and/or frequency of administration of a prescribed SSRI or SNRI may be adjusted to fit within study parameters. Participants may be required to taper a prescribed course of medication in order to maintain eligibility within the study. The Treatment Period consists of three monthly Experimental Sessions and associated Intervening Sessions of integrative behavioral psychotherapy. The Treatment Period lasts approximately 12 weeks. Following the Treatment Period is a Follow-up Period and Study Conclusion. During the Follow-up Period and Study Conclusion, participants complete 4 weeks with no study visits, followed by a Study Conclusion visit.
This study compares the effects of three blinded Experimental Sessions of psychotherapy in combination with flexible doses of MDAI or placebo administered as described below. Non-drug preparatory and intervening psychotherapy sessions are also included. Patient's weight is determined for dosage calculation. Initial dose is 100 mg unless this will result in a dosage of less than 1.5 mg/kg of patient weight. Initial dose thereby adjusted upward in 50 mg increments to deliver the lowest dose possible of at least 1.5 mg/kg of patient weight. Initial dose for Experimental Session 2 and 3 is cumulative dose calculated by adding the initial dose plus REMS protocol dose used the previous Experimental Session for each patient.
Randomization occurs prior to the initiation of Experimental Session 1. […]

[7] = cited from earlier work; remark: listed apart in the source
[8] = Physical stability of MBDB salts at 40° C./75% RH; type: physicochemical
Procedure: During the screen, a single crystal Maleate 1 of sufficient size and quality was obtained from a vapor diffusion experiment with ethanol and hexane. The crystal structure is reported elsewhere but the data confirmed the anhydrous/unsolved nature of the material. […] Two new crystalline forms of MBDB Maleate were observed during the screening designated as MBDB Maleate 2 and MBDB Maleate 3 (FIG. 96, 97). Additional characterization of these samples was conducted to better understand the nature of the materials produced, as shown below. MBDB Maleate 2 was generated once from a cooling crystallization from dioxane. The proton nuclear magnetic resonance (NMR) spectrum was consistent with a monomaleate salt of MBDB and contained residual dioxane. Only a limited amount of material was recovered so the only additional characterization that could be completed was differential scanning calorimetry (DSC). The DSC thermogram appears consistent with an anhydrous/unsolvated form with a likely melt at 96° C. (FIG. 100). […] An attempt was made to reproduce Maleate 2 using the same conditions and seeds of Maleate 2. PXRD analysis of the recovered solids however was consistent with Maleate 1. MBDB Maleate 3 was isolated from an evaporation experiment involving chloroform and ethyl acetate. NMR analysis of the material was consistent with a mono-maleate salt of MBDB. Thermal analysis was consistent with an anhydrous/unsolvated material with a likely melting point of 73° C. (FIG. 101). […] No additional characterization was completed on this sample due to the limited amount of material that was recovered.

[9] = Solid-form stability of MBDB maleate forms (ball milling, drying, interconversion slurry); type: physicochemical
Procedure: During the screen, a single crystal Maleate 1 of sufficient size and quality was obtained from a vapor diffusion experiment with ethanol and hexane. The crystal structure is reported elsewhere but the data confirmed the anhydrous/unsolved nature of the material. […] Two new crystalline forms of MBDB Maleate were observed during the screening designated as MBDB Maleate 2 and MBDB Maleate 3 (FIG. 96, 97). Additional characterization of these samples was conducted to better understand the nature of the materials produced, as shown below. MBDB Maleate 2 was generated once from a cooling crystallization from dioxane. The proton nuclear magnetic resonance (NMR) spectrum was consistent with a monomaleate salt of MBDB and contained residual dioxane. Only a limited amount of material was recovered so the only additional characterization that could be completed was differential scanning calorimetry (DSC). The DSC thermogram appears consistent with an anhydrous/unsolvated form with a likely melt at 96° C. (FIG. 100). […] An attempt was made to reproduce Maleate 2 using the same conditions and seeds of Maleate 2. PXRD analysis of the recovered solids however was consistent with Maleate 1. MBDB Maleate 3 was isolated from an evaporation experiment involving chloroform and ethyl acetate. NMR analysis of the material was consistent with a mono-maleate salt of MBDB. […]

[10] = oral, people, MDAI Dosages (psychonautwiki)

SMILES: CNC(C)Cc1ccc2c(c1)OCO2.CNC(C)Cc1ccc2c(c1)OCO2.O=C(O)/C=C/C(=O)O (stereo not shown) [Fumarate]
- Hygroscopic at 75% RH? [1]: no evidence of hygroscopicity and No
- Solubility ([2]; 1,4-dioxane): <1000 µg/mL
- Solubility ([2]; 1:1 MeOH:chloroform (CHCl3)): 35000 µg/mL
- Solubility ([2]; 2-propanol (IPA)): <1000 µg/mL
- Solubility ([2]; 95:5 ACN:water): 4000 µg/mL
- Solubility ([2]; 95:5 EtOH:water): 15000 µg/mL
- Solubility ([2]; 95:5 IPA:water): 5000 µg/mL
- Solubility ([2]; 95:5 THF:water): 14000 µg/mL
- Solubility ([2]; 95:5 acetone:water): 2000 µg/mL
- Solubility ([2]; 95:5 dioxane:water): 6000 µg/mL
- Solubility ([2]; acetone): <1000 µg/mL
- Solubility ([2]; acetonitrile (ACN)): <1000 µg/mL
- Solubility ([2]; dichloromethane (DCM)): <1000 µg/mL
- Solubility ([2]; diethyl ether (Et2O)): <1000 µg/mL
- Solubility ([2]; ethanol (EtOH)): 4000 µg/mL
- Solubility ([2]; ethyl acetate (EtOAc)): <1000 µg/mL
- Solubility ([2]; methanol (MeOH)): 47000 µg/mL
- Solubility ([2]; tetrahydrofuran (THF)): <1000 µg/mL
- Solubility ([2]; water): 260000 µg/mL
- Hygroscopicity by DVS ([3]; listed as MDMA Hemi-Fumarate): Slightly hygroscopic
- Hygroscopicity by DVS ([3]; listed as MDMA hemi-fumarate): slightly hygroscopic
- Post-DVS XRPD (form change) ([3]; solids after DVS analysis): Unchanged

SMILES: CNC(C)Cc1ccc2c(c1)OCO2.CNC(C)Cc1ccc2c(c1)OCO2.O=C(O)[C@@H](O)[C@H](O)[C@H](O)[C@@H](O)C(=O)O (stereo not shown) [Galactarate (Mucate)]
- Hygroscopic at 75% RH? [1]: no evidence of hygroscopicity and No

SMILES: CCC(Cc1ccc2c(c1)OCO2)NC (stereo not shown) [MBDB, 1-(benzo[d][1,3]dioxol-5-yl)-N-methylbutan-2-amine]
- Effects: Coming Down, Time After Dose ([4]; Duration of effects of MBDB in people, adapted from PiHKAL 1991): ~90 min
- Reported time to achieve peak effects ([4]; after dosing): 0.75 to 1 h
- Oral MBDB Dose, Drug Activity Level: Very Strong ([4]; oral, people): ≥350 mg
- Oral dose for Drug Activity Level Threshold [5, 10]: 40 mg
- Oral dose for drug activity level Very Strong [5, 10]: ≥300 mg

SMILES: NC1Cc2cc3c(cc2C1)OCO3 [MDAI, 5,6-methylenedioxy-2-aminoindane]
- Percentage of time in the open arms (% TO) (Male Sprague-Dawley rats; 0.625 mg/kg ip): numerical increase in % TO that was greater than vehicle or any other dose of MDAI
- Percentage of time in the open arms (% TO) (Male Sprague-Dawley rats; doses too low or too high (0.15, 0.31, 1.25, 2.5)): opposite effect on % TO
- Total open arm entries (Male Sprague-Dawley rats; higher and lower doses): trended towards an anxiogenic effect
- Total open arm entries (Male Sprague-Dawley rats; middle dose): increase vs placebo that trended towards significance
- Daytime sleepiness (ESS) ([6]; Study Conclusion): significant improvement in lessening daytime sleepiness
- Clinician-rated functional impairment score (SDS) ([6]; Study Conclusion, vs placebo): significant improvement in clinician-rated functional impairment score
- Depression (HAM-D) ([6]; Study Conclusion, vs placebo): significant improvement depression
- Change in CAPS-5 assessment ([6]; Study Conclusion, vs placebo, hydrochloride salt with psychotherapy): significant mean reduction in CAPS-assessment compared to the placebo group
- Adverse anxiogenic incidents ([6]; vs placebo-treated controls): without a significant increase in adverse anxiogenic incidents
- Reported time to achieve peak effects ([5]; after dosing): 0.75 to 2 h

SMILES: CCNC(C)Cc1ccc2c(c1)OCO2 (stereo not shown) [MDE, N-ethyl-3,4-methylenedioxyamphetamine]
- Reported time to achieve peak effects ([7]; after dosing): 1 to 2 h
- Oral dose for drug activity level Very Strong ([7]; oral): ≥225 mg

SMILES: CCC(Cc1ccc2c(c1)OCO2)NC.O=C(O)/C=C\C(=O)O (stereo not shown) [Maleate 1]
- Hygroscopicity by DVS [3]: minimal water sorption over RH range
- DVS weight gain ([3]; at 95% RH, listed as MBDB Maleate Form1): 0.6% wt gain
- Hygroscopic? ([3]; based on moisture uptake at 95% observed during DVS analysis): Slightly
- Physical stability by PXRD ([8]; 40° C./75% RH for 50 days): no change
- Physical Stability ([8]; 40° C./75% RH overnight): No change
- Physical Stability ([8]; after 1 day at 40° C./75% RH): No visible change
- Stability to ball milling (recovered solids vs starting material) ([9]; ball milled): stable under mechanical stressing

SMILES: CCC(Cc1ccc2c(c1)OCO2)NC.O=C(O)/C=C\C(=O)O (stereo not shown) [Maleate 3]
- Form stability on drying (PXRD) ([9]; mixture of Maleate 3 and Maleate 1 dried at 46° C. overnight, recovered solids Maleate 1): metastable under these conditions

SMILES: CNC(C)Cc1ccc2c(c1)OCO2.O=C(O)/C=C\C(=O)O (stereo not shown) [Maleate Form 1]
- Hygroscopic at 75% RH? [1]: No

SMILES: CNC(C)Cc1ccc2c(c1)OCO2.O=C(O)/C=C\C(=O)O (stereo not shown) [Maleate Form 2]
- Hygroscopic at 75% RH? [1]: No

SMILES: CNC(C)Cc1ccc2c(c1)OCO2.O=P(O)(O)O.O=P(O)(O)O (stereo not shown) [Phosphate]
- Hygroscopic at 75% RH? [1]: no evidence of hygroscopicity and No

SMILES: CNC(C)Cc1ccc2c(c1)OCO2.O=C(O)CCC(=O)O (stereo not shown) [Succinate]
- Hygroscopic at 75% RH? [1]: No
